This is an account of results in publication PMC9656436, “Synthesis and Biological Evaluation of New Isoxazolyl Steroids as Anti-Prostate Cancer Agents” (International Journal of Molecular Sciences, 2022).

The target of assay [1] is T1, CYP17A1 (Homo sapiens, UniProt P05093).
T1 construct: recombinant human CYP17A1, reconstituted system; with NADPH-cytochrome P450 reductase (rat)
T1 sequence (P05093 1-508): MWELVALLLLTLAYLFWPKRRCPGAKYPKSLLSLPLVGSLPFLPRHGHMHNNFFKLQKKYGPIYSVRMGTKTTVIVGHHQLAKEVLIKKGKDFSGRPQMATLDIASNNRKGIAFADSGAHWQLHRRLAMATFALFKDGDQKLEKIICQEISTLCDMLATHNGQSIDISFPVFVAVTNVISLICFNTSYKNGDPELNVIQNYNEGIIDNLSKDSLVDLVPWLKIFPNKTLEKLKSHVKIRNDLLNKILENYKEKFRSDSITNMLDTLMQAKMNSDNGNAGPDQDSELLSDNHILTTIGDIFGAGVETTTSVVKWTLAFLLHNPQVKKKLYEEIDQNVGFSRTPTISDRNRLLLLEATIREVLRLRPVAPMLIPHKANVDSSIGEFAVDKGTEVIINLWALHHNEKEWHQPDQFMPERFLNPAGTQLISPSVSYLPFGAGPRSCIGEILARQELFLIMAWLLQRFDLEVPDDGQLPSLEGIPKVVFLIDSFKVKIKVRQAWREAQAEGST
T1 sequence (P00388 2-678 partner): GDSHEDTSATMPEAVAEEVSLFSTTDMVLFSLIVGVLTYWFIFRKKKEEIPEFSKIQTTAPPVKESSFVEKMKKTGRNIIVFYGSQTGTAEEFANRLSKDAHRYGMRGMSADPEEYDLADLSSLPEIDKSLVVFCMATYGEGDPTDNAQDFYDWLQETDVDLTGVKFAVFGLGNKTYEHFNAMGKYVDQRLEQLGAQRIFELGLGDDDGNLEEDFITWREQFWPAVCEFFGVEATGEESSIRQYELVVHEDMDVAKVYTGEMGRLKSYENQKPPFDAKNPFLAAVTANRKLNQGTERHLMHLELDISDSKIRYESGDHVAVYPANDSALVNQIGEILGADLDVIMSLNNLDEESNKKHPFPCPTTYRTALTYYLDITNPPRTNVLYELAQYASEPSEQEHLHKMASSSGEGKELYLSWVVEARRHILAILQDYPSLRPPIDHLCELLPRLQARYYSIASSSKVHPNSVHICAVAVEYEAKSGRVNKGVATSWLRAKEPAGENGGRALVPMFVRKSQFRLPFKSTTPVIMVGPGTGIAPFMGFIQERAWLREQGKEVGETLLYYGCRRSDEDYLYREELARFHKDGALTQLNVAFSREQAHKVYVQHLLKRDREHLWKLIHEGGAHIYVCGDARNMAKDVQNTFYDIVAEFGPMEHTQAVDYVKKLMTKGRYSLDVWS
The assay is described as follows: reconstituted […]α-hydroxylase assay, HPLC, […] compound. The conditions noted are these: read-out: 17α-Hydroxylase Activity / Inhibition, %. The assay is classed as biochemical.

For assay [2], the target named is T2, CYP17A1 (Homo sapiens, UniProt P05093).
T2 construct: recombinant human CYP17A1, purified
T2 sequence (P05093 1-508): T1 sequence (P05093 1-508)
The assay is described as follows: UV-Vis spectrophotometric titration (type II spectral response). The assay is classed as binding.

In the case of `CC(C)c1cc(C[C@H]2CC[C@H]3[C@@H]4CC=C5C[C@@H](O)CC[C@]5(C)[C@H]4CC[C@]23C)on1` [24b, (17R)-17-((3-isopropylisoxazol-5-yl)methyl)-androst-5-en-3β-ol], the inhibition at 50 µM on CYP17A1 [1] worked out at 45%.
As to `C[C@]12CC[C@H]3[C@@H](CC=C4C[C@@H](O)CC[C@@]43C)[C@@H]1CC[C@@H]2Cc1cc(C2CC2)no1` [24c, (17R)-17-((3-Cyclopropylisoxazol-5-yl)methyl)-androst-5-en-3β-ol], on CYP17A1 [1], the inhibition at 50 µM is 45.7%.
By Kd is commonly meant the equilibrium constant for the complex coming apart. The low end stands for a tighter complex, the high end for a looser complex. In turn, `C[C@]12CC[C@H](O)CC1=CC[C@@H]1[C@@H]2CC[C@]2(C)C(c3cccnc3)=CC[C@@H]12` [abiraterone] came in with a Kd on CYP17A1 [2] of under 1000 nM.
